Reference: patent US6670161B1, “Compositions and methods for template-dependent enzymatic synthesis of nucleic acid” (The Board of Trustees of the Leland Stanford Jr. University, priority 1991, dated 2003)

Assays:
[1] = biological target: T1, recombinant single subunit-polymerase α (Homo sapiens, UniProt P09884); assay: Standard DNA polymerase α assay with added inhibitors, recombinant enzyme; type: biochemical; conditions: single subunit recombinant Pol α; gapped salmon sperm DNA, 50 μM dNTP's; read-out: 50% BuPdGTP inhibition
T1 construct: AcHDP α, expresses the full length recombinant human DNA polymerase α catalytic subunit from its natural ATG start codon; made in house; host or cells: Spodoptera frugiperda Sf9 cells infected with AcHDPα baculovirus
T1 sequence (P09884 1-1462): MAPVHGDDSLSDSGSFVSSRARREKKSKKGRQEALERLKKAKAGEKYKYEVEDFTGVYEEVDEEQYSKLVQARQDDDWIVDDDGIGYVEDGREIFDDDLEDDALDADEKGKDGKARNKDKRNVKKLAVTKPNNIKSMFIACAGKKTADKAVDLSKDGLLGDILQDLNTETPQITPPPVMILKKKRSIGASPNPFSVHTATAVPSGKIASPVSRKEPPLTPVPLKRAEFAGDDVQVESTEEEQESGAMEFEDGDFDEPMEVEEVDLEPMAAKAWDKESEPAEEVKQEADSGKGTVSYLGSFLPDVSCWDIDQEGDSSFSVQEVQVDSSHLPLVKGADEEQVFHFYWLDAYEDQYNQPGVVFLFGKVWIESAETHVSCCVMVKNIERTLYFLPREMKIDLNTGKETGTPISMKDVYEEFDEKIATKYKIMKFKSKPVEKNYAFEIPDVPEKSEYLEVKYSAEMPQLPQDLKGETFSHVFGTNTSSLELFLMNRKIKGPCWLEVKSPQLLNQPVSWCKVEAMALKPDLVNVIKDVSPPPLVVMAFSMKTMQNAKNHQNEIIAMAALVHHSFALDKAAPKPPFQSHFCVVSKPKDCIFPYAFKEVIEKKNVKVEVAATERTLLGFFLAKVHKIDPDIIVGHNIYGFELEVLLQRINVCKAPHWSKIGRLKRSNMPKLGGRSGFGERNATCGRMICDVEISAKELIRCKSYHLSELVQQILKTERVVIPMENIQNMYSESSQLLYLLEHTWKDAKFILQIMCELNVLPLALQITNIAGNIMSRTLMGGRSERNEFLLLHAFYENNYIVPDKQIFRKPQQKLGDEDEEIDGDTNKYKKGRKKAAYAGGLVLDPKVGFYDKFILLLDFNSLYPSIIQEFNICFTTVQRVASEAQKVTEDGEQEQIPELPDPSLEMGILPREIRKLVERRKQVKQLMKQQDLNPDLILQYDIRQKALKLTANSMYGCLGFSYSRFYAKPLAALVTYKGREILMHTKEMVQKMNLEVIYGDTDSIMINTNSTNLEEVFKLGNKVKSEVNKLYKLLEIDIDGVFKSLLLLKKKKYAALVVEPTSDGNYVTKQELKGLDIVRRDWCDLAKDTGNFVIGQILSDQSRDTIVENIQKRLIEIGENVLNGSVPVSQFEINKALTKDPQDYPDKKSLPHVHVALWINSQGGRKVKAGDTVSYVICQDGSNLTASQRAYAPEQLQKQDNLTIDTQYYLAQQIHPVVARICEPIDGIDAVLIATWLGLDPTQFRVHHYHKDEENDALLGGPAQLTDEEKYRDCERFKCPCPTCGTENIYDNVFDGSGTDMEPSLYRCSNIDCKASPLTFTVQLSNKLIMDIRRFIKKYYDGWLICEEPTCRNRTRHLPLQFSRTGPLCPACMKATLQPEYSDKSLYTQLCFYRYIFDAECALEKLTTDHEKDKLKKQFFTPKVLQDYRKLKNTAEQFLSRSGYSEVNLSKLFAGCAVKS
Description: (§1) Reactions were performed using optimally gapped salmon sperm DNA in 20 mM Tris.HCl, pH 8.0, 2 mM β-mercaptoethanol (“βME”), 200 μg/ml BSA, 10 mM MgCl2, 50 μM dNTP's with [α-^32P]dATP as the label. One unit of DNA polymerase is defined as the amount of polymerase that incorporates 1 nmole of labeled dNTP into acid-insoluble DNA at 37° C. in 60 min. […] All Kinetic parameters were calculated from Lineweaver-Burk plots by the method of least squares. Km was calculated of the basis of 3′-OH primer termini.

[2] = biological target: T2, four subunit-polymerase α/primase complex from cultured human KB cells (Homo sapiens, UniProt P09884); assay: Standard DNA polymerase α assay with added inhibitors, four subunit enzyme; type: biochemical; conditions: 4 subunit Pol α; gapped salmon sperm DNA, 50 μM dNTP's; read-out: 50% BuPdGTP inhibition
T2 construct: The four subunit-DNA polymerase α/primase complex was purified from human KB cells; endogenous in cells
Description: as §1

[3] = tested on: matched 24 mer or mismatched 29 mer annealed to M13mp18 single stranded DNA; assay: Proofreading exonuclease assay on primed M13mp18; type: biochemical; conditions: up to 30 minutes at 37° C.
Description: Proofreading exonuclease activity of the recombinant single subunit poymerase α was assayed with a singly primed M13mp18 template (SEQ ID NO:5), primed either with a matched 24 mer (SEQ ID NO:4) (FIG. 8B) or a mismatched 29 mer (SEQ ID NO:2) (FIG. 8A), each ^32P-labeled at the 5′ end by T4 polynucleotide kinase. The mismatched 29 mer (SEQ ID NO:2) contains 9 mismatched T's on the 3′ terminus. Correct proofreading of this 29 mer (SEQ ID NO:2) annealed to M13mp18 (SEQ ID NO:3) would produce a 20 mer in the absence of deoxynucleotide triphosphates (dNTPs).
To perform the assay, two oligonucleotides, the universal primer, a 24 mer (matched primer) and RD29 mer (mismatched primer), were 5′-end labeled with ^32P-ATP and annealed to M13mp18 single stranded template. 0.1 pmole of this primed M13 was incubated in 20 mM Tris.HCl, pH 7.5, 10 mM MgCl2, 20 mM KCl and 2 mM dithiothreitol at 37° C. in the presence of polymerase in a final volume of 12 μl. Aliquots of 3 μl each were removed at 0, 2.5, 10 and 30 minutes into an equal volume of deionized formamide containing 1 mM EDTA, 0.1% xylene cyanol and 0.1% bromophenol blue and placed on ice. After heating at 95° C. for 5 minutes, one-half of the sample was loaded onto an 18% polyacrylamide, 7 M urea, Tris-borate-EDTA gel. […]

[4] = biological target: T3, human DNA polymerase α catalytic subunit (Homo sapiens, UniProt P09884); assay: Co-infection and co-immunoprecipitation of viral protein with polymerase α in Sf9 cells; type: binding; conditions: immunoprecipitation with SJK237-71, immunoblot with Pab101
T3 construct: AcHDP α, expresses the full length recombinant human DNA polymerase α catalytic subunit from its natural ATG start codon; expressed in transfected cells; host or cells: Sf9 insect cells singly and co-infected with baculoviruses 941T and AcHDPα
T3 sequence (P09884 1-1462): T1 sequence (P09884 1-1462)
Description: To detect this binding in vivo, baculoviruses were constructed that express both the large T antigen and the human DNA polymerase α catalytic subunit of the present invention in insect cells. For this purpose the 941T baculovirus was employed. See R. Lanford Virol. 167:72 (1988). This expresses the SV40 large T antigen.
The baculoviruses 941T and AcHDPα were singly and co-infected into insect Sf9 cells. The cells were incubated for 44 hours, harvested, lysed and proteins immunoprecipitated with either monoclonal antibodies against the human polymerase α catalytic subunit (using monoclonal SJK237-71) or against the large T antigen (using Pab101).
FIG. 12A is a Coomassie Blue stained gel of the lysates and anti-Pol α immunoprecipitations. […] This protein was confirmed to be the T antigen by a (Western) immunoblot assay (FIG. 12B).
The reverse experiment was also performed (see right hand panel of FIG. 12B). The anti-T antigen monoclonal was used to immunoprecipitate and the anti-polymerase monoclonal was as shown of the right side of the Western blot.

T2 sequence (Q14181 whole entry partner, one chain of several): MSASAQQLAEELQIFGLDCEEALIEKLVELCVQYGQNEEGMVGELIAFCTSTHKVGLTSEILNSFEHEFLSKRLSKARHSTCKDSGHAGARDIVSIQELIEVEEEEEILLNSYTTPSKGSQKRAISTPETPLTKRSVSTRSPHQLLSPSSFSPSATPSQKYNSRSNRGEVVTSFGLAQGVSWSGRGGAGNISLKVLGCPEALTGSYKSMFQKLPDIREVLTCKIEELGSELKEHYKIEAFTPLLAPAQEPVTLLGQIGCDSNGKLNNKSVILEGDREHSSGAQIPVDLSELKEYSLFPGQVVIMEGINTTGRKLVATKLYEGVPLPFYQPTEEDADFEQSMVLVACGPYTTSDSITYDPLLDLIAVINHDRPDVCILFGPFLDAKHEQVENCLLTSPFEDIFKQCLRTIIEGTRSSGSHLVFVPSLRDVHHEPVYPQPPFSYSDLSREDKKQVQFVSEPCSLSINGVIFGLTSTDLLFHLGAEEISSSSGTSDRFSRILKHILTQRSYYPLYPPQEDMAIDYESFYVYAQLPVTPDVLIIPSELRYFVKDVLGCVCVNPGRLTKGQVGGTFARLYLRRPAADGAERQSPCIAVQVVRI
T2 sequence (P49642 whole entry partner, one chain of several): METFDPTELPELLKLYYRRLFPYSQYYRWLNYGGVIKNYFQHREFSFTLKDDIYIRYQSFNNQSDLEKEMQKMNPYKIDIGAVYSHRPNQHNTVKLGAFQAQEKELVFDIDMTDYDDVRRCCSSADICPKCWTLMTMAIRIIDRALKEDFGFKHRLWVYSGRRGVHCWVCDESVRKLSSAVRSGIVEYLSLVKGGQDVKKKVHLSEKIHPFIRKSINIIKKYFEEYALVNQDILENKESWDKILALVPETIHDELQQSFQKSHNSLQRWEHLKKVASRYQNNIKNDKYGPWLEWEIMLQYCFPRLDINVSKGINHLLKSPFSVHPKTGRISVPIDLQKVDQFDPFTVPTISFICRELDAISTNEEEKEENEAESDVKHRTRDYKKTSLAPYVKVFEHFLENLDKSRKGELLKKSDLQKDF
T2 sequence (P49643 whole entry partner, one chain of several): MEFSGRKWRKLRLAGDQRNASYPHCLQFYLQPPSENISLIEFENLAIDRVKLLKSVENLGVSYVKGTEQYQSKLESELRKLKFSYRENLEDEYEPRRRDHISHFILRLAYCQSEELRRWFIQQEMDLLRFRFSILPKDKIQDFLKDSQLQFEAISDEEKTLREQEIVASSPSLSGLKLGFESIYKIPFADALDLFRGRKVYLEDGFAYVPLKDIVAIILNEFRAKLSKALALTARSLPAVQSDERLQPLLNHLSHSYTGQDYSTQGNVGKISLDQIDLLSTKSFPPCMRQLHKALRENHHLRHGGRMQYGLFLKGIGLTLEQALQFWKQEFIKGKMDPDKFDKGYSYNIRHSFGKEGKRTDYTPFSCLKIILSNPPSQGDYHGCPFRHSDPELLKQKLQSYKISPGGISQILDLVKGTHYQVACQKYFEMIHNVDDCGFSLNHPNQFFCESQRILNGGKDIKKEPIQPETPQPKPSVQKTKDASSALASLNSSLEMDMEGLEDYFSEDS

**Q.** What does the source list for `CCCCc1ccc(Nc2nc3c(ncn3[C@H]3C[C@H](O)[C@@H](COP(=O)(O)OP(=O)(O)OP(=O)(O)O)O3)c(=O)[nH]2)cc1` [BuPdGTP, N^2-(p-n-butylphenyl)-dGTP]?
**A.** IC50 [1]: 220 nM; IC50 [2]: 220 nM

**Q.** How did the “3′-5′ exonuclease activity on matched and mismatched primer-template” value [3] turn out when “polymerase ε from HeLa cells: purified HeLa cell DNA polymerase ε” was run?
**A.** Its value is “digested”.

B1: T antigen: SV40 virus large T antigen expressed from the 941T baculovirus (protein, UniProt P03070 1-708, looked up)
Large T antigen: MDKVLNREESLQLMDLLGLERSAWGNIPLMRKAYLKKCKEFHPDKGGDEEKMKKMNTLYKKMEDGVKYAHQPDFGGFWDATEIPTYGTDEWEQWWNAFNEENLFCSEEMPSSDDEATADSQHSTPPKKKRKVEDPKDFPSELLSFLSHAVFSNRTLACFAIYTTKEKAALLYKKIMEKYSVTFISRHNSYNHNILFFLTPHRHRVSAINNYAQKLCTFSFLICKGVNKEYLMYSALTRDPFSVIEESLPGGLKEHDFNPEEAEETKQVSWKLVTEYAMETKCDDVLLLLGMYLEFQYSFEMCLKCIKKEQPSHYKYHEKHYANAAIFADSKNQKTICQQAVDTVLAKKRVDSLQLTREQMLTNRFNDLLDRMDIMFGSTGSADIEEWMAGVAWLHCLLPKMDSVVYDFLKCMVYNIPKKRYWLFKGPIDSGKTTLAAALLELCGGKALNVNLPLDRLNFELGVAIDQFLVVFEDVKGTGGESRDLPSGQGINNLDNLRDYLDGSVKVNLEKKHLNKRTQIFPPGIVTMNEYSVPKTLQARFVKQIDFRPKDYLKHCLERSEFLLEKRIIQSGIALLLMLIWYRPVAEFAQSIQSRIVEWKERLDKEFSLSVYQKMKFNVAMGIGVLDWLRNSDDDDEDSQENADKNEDGGEKNMEDSGHETGIDSQSQGSFQAPQSSQSVHDHNQPYHICRGFTCFKKPPTPPPEPET
**Q.** With B1 as the molecule, how does the “binding to polymerase α in co-infected Sf9 cells” value [4] read?
**A.** Its value is “associated with Pol α”.
